The record followed here is ChEMBL document CHEMBL1134402, “Atropisomeric derivatives of 2',6'-disubstituted (R)-11-phenylaporphine: selective serotonin 5-HT(7) receptor antagonists” (J Med Chem, 2001).

For orientation: pKi means the negative decadic logarithm of the Ki, by convention in mol/L. What is called inhibition is how much of the control response was suppressed. Low readings indicate a weak effect, high ones a strong effect.

The structures appear in SMILES notation. pKi: −log10 of the molar value.

Test [1] addresses T1, 5-hydroxytryptamine receptor 1A (Homo sapiens, UniProt P08908).
T1 sequence (P08908 whole entry): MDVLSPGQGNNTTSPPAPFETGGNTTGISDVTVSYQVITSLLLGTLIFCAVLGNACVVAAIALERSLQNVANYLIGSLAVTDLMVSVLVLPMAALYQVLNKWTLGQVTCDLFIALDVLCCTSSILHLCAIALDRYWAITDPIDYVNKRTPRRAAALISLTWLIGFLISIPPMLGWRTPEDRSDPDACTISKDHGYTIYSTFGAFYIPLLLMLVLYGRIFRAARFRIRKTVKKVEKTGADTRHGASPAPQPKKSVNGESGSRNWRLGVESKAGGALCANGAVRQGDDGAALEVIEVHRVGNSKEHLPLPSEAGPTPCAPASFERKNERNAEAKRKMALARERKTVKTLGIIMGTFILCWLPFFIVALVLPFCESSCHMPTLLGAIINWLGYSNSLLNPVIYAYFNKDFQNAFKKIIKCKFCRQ
The test is described as follows: Displacement of [3H]8-OH-DPAT from human 5-hydroxytryptamine 1A receptor expressed in CHO cells. It is filed as cell-based.

Test [2] concerns the target 5-hydroxytryptamine receptor 7 (Rattus norvegicus, UniProt P32305). The experiment in a line: Displacement of [3H]5-HT from rat 5-hydroxytryptamine 7 receptor expressed in CHO cells. It is filed as cell-based.
Test [3] concerns the target 5-hydroxytryptamine receptor 7 (Rattus norvegicus) (UniProt P32305). The test is described as follows: Percent inhibition of 5-HT7-induced stimulation of cAMP production in CHO cells expressing rat 5-HT receptors at a concentration of 10000 nM. It counts as cell-based. Background: Cyclic AMP is a second messenger, typically raised through Gs and lowered through Gi signalling.

Test [4] has the same target. The experiment in a line: Percent inhibition of 5-HT7-induced stimulation of cAMP production in CHO cells expressing rat 5-HT receptors at a concentration of 100 nM. It is filed as cell-based.
Test [5] shares this target. The experiment in a line: Percent inhibition of 5-HT7-induced stimulation of cAMP production in CHO cells expressing rat 5-HT receptors at a concentration of 1 nM. It is filed as cell-based.
For test [6] the target is unchanged. The conditions noted are these: CHO; 10000 nM.
For test [7] the target is unchanged. The conditions noted are these: CHO; 100 nM.
Test [8] has the same target. The conditions noted are these: CHO; 1 nM.
Test [9] concerns the target D(2) dopamine receptor (Homo sapiens, UniProt P14416). The test is described as follows: Displacement of [3H]raclopride from human dopamine receptor D2A expressed in mouse Ltk cells. It counts as cell-based.
For test [10], the target named is 5-hydroxytryptamine receptor 7 (Rattus norvegicus) (UniProt P32305). The test is described as follows: Percent inhibition of 5-HT7-induced stimulation of cAMP production in CHO cells expressing rat 5-HT receptors by 10000 nM 5-HT. It is filed as cell-based.
Chain of 5-hydroxytryptamine receptor 7 (Rattus norvegicus) (P32305 whole entry): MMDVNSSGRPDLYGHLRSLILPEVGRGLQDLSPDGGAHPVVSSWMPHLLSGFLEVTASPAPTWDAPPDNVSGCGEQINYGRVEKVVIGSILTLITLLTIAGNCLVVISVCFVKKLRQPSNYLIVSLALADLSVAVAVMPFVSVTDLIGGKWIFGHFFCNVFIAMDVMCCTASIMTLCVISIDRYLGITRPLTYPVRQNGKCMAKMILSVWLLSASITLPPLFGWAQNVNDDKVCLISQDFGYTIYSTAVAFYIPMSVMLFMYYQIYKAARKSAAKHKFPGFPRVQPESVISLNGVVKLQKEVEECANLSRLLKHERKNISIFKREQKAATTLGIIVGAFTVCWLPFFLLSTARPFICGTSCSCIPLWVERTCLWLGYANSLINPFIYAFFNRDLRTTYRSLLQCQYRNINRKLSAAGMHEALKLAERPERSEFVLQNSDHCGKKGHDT
Test [11] has the same target. The experiment in a line: Percent inhibition of 5-HT7-induced stimulation of cAMP production in CHO cells expressing rat 5-HT receptors by 100 nM 5-HT. It is filed as cell-based.
Test [12] has the same target. The experiment in a line: Percent inhibition of 5-HT7-induced stimulation of cAMP production in CHO cells expressing rat 5-HT receptors by 1 nM 5-HT. It counts as cell-based.

Chain of 5-hydroxytryptamine receptor 7 (P32305 whole entry): as above
Chain of D(2) dopamine receptor (P14416 whole entry): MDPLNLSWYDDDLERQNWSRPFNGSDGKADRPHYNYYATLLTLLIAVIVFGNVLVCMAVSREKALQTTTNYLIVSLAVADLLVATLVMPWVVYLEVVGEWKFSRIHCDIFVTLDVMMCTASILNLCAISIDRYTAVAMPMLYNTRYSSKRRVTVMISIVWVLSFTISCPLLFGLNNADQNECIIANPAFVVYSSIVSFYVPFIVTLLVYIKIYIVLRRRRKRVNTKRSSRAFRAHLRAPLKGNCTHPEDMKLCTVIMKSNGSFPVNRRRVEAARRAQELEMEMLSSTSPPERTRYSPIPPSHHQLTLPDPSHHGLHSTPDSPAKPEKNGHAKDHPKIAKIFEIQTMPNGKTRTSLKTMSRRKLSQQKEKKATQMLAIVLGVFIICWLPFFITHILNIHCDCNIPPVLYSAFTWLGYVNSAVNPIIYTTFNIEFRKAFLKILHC

On to `Cc1cccc(S(=O)(=O)N(C)[C@H](C)CCN2CCC(C)CC2)c1` [SB-258719], for which the pKi in test [1] is less than 5.10; in test [2], 7.50.
For the molecule `CN1CCc2cccc3c2[C@H]1Cc1cccc(-c2ccccc2)c1-3`, the pKi in test [1] was 8.74; in test [2] it was 8.01. Moreover, the inhibition in test [3] worked out at 100%; in test [4] it was 30%; in test [5], 23%.
For `Cc1cccc(C#N)c1-c1cccc2c1-c1cccc3c1[C@@H](C2)N(C)CC3` (stereo in doubt; form 1) [listing 1 of 2 here], the inhibition in test [6] was found to be 100%; in test [7], 42%; in test [8], 21%.
On to `Cc1cccc(C#N)c1-c1cccc2c1-c1cccc3c1[C@@H](C2)N(C)CC3` (stereo in doubt; form 2), for which the results for the pKi in [1], in test [2] and in test [9] were 6.85, 8.42 and 6.30, respectively.
With `Cc1cccc(O)c1-c1cccc2c1-c1cccc3c1[C@@H](C2)N(C)CC3` (stereo in doubt; form 1) [listing 1 of 2 here], the results for the inhibition in test [10], in [11] and in test [12] were 100%, 72% and 11%, respectively.
`Cc1cccc(O)c1-c1cccc2c1-c1cccc3c1[C@@H](C2)N(C)CC3` (stereo in doubt; form 2) [listing 1 of 2 here]: the pKi in test [1] was 6.50; in test [2] it was 7.37; in test [9], 5.47.
For `CN1CCc2cccc3c2[C@H]1Cc1cccc(-c2c(O)cccc2O)c1-3`, the results for the pKi in test [1], in test [2] and in test [9] were 6.86, 7.44 and less than 6.00, respectively.
Turning to `Cc1cccc(O)c1-c1cccc2c1-c1cccc3c1[C@@H](C2)N(C)CC3` (stereo in doubt; form 2) [listing 2 of 2 here], the inhibition in [3] amounted to 100%; in test [4], 43%; in test [5] it was 21%.
Regarding `Cc1cccc(C#N)c1-c1cccc2c1-c1cccc3c1[C@@H](C2)N(C)CC3` (stereo in doubt; form 1) [listing 2 of 2 here], the values for the negative logarithm of the Ki (pKi) in test [1], in test [2] and in [9] were 6.11, 7.68 and 5.61, respectively.
The corresponding values for `COc1cccc(OC)c1-c1cccc2c1-c1cccc3c1[C@@H](C2)N(C)CC3` are 6.26, 7.89 and 5.69.
For `Cc1cccc(O)c1-c1cccc2c1-c1cccc3c1[C@@H](C2)N(C)CC3` (stereo in doubt; form 1) [listing 2 of 2 here], in that order: 7.31, 7.64 and 5.60.
The corresponding values for `O=C1Nc2cccc3c2[C@]1(CCCCN1CC=C(c2ccccc2)CC1)CCC3` are 6.77, 8.48 and 6.98.
Consider `CN1CCc2cccc3c2[C@H]1Cc1cccc(-c2c(OS(=O)(=O)C(F)(F)F)cccc2OS(=O)(=O)C(F)(F)F)c1-3`, for which the pKi in [1] was less than 5.00; in test [2] it was 6.15; in test [9], 5.65.
